# Measured values taken from US20060110451A1, “Formulations of [1,4]diazepino[6,7,1-IJ]quinoline derivatives” (priority 2004, published 2006).
# Read-outs that look alike come from different tables or passages of the source.
# Assay: Ascending multiple dose pharmacokinetics of enteric coated capsules in healthy subjects
# Assay type: in vivo, human
# Conditions: for Tmax / half-life / AUC(0-t) / Cmax / AUC(0-inf): human, plasma
# Protocol: Ascending multiple doses of 25, 50, 75, 100, 150, and 250 mg Compound A.HCl were administered as twice-daily regimen (q12h) for 14 days in cohorts of 8 healthy subjects (6 active and 2 placebo). Blood samples for Compound A.HCl analysis were obtained on days 1 and 14 within 2 hours of test article administration and at various time points from 0.5 to 48 hours after test article administration. Doses were administered orally after an overnight fast of at least 10 hours on these 2 days. Trough PK samples were collected on days 7, 10, and 12 to assess whether steady-state had been reached.
# A total of 48 subjects contributed pharmacokinetic data for this analysis. […] FIGS. 4A and 4B show the relationship between Cmax vs. dose and AUC vs. dose, respectively.
smiles,measurement,setting,value
"Cl.c1cc2c3c(c1)[C@H]1CCC[C@H]1CN3CCNC2 [Compound A.HCl, (9aR,12aS)-4,5,6,7,9,9a,10,11,12,12a-decahydrocyclopenta[c][1,4]diazepino[6,7,1-ij]quinoline hydrochloride]",steady-state Cl/F lower in comparison to the lower dose groups,250 mg q12h dose,54-60%
same,time of minor secondary peak,"day 14 (steady state), most subjects, all dose groups",24 to 28 h
same,dose-proportionality of single dose and steady-state AUC and Cmax,dose range 25 to 150 mg q12h,approximately linear dose-proportionality
same,Tmax,"oral, healthy subjects, single and multiple dose administration, enteric-coated formulation, 25-250 mg, read-out: mean Tmax",4 to 6 h
same,half-life,"oral, multiple dose, read-out: mean elimination t1/2",6 to 8 h
same,half-life,"oral, single dose, read-out: mean elimination t1/2",8 to 11 h
same,AUC(0-t),"po, 25 mg, healthy subjects, multiple oral doses (q12 h) 25 mg, day 14, read-out: AUCss (AUC0-12) (Geom. Mean)",8 ng·h/mL
same,AUC(0-t),"po, 25 mg, healthy subjects, multiple oral doses (q12 h) 25 mg, day 14, read-out: AUCss (AUC0-12) (Mean)",~8.73 ng·h/mL
same,Cmax,"po, 25 mg, healthy subjects, multiple oral doses (q12 h) 25 mg, day 14, read-out: Cmax (Geom. Mean)",1.16 ng/mL
same,Cmax,"po, 25 mg, healthy subjects, multiple oral doses (q12 h) 25 mg, day 14, read-out: Cmax (Mean)",1.22 ng/mL
same,Tmax,"po, 25 mg, healthy subjects, multiple oral doses (q12 h) 25 mg, day 14, read-out: Tmax (Geom. Mean)",3.7 h
same,Tmax,"po, 25 mg, healthy subjects, multiple oral doses (q12 h) 25 mg, day 14, read-out: Tmax (Mean)",4 h
same,half-life,"po, 25 mg, healthy subjects, multiple oral doses (q12 h) 25 mg, day 14, read-out: t1/2 (Geom. Mean) (converted)",6.25 h
same,half-life,"po, 25 mg, healthy subjects, multiple oral doses (q12 h) 25 mg, day 14, read-out: t1/2 (Mean) (converted)",6.35 h
same,Cmax,"po, 25 mg, healthy subjects, single oral dose 25 mg, day 1, read-out: Cmax (Geom. Mean)",0.81 ng/mL
same,Cmax,"po, 25 mg, healthy subjects, single oral dose 25 mg, day 1, read-out: Cmax (Mean)",0.87 ng/mL
same,Tmax,"po, 25 mg, healthy subjects, single oral dose 25 mg, day 1, read-out: Tmax (Geom. Mean)",5 h
same,Tmax,"po, 25 mg, healthy subjects, single oral dose 25 mg, day 1, read-out: Tmax (Mean)",5.2 h
same,AUC(0-t),"po, 50 mg, healthy subjects, multiple oral doses (q12 h) 50 mg, day 14, read-out: AUCss (AUC0-12) (Geom. Mean)",25.3 ng·h/mL
same,AUC(0-t),"po, 50 mg, healthy subjects, multiple oral doses (q12 h) 50 mg, day 14, read-out: AUCss (AUC0-12) (Mean)",~26.5 ng·h/mL
same,Cmax,"po, 50 mg, healthy subjects, multiple oral doses (q12 h) 50 mg, day 14, read-out: Cmax (Geom. Mean)",3.27 ng/mL
same,Cmax,"po, 50 mg, healthy subjects, multiple oral doses (q12 h) 50 mg, day 14, read-out: Cmax (Mean)",3.39 ng/mL
same,Tmax,"po, 50 mg, healthy subjects, multiple oral doses (q12 h) 50 mg, day 14, read-out: Tmax (Geom. Mean)",5.6 h
same,Tmax,"po, 50 mg, healthy subjects, multiple oral doses (q12 h) 50 mg, day 14, read-out: Tmax (Mean)",5.7 h
same,half-life,"po, 50 mg, healthy subjects, multiple oral doses (q12 h) 50 mg, day 14, read-out: t1/2 (Geom. Mean) (converted)",7.58 h
same,half-life,"po, 50 mg, healthy subjects, multiple oral doses (q12 h) 50 mg, day 14, read-out: t1/2 (Mean) (converted)",7.64 h
same,AUC(0-inf),"po, 50 mg, healthy subjects, single oral dose 50 mg, day 1, read-out: AUC0-∞ (Geom. Mean)",22.8 ng·h/mL
same,AUC(0-inf),"po, 50 mg, healthy subjects, single oral dose 50 mg, day 1, read-out: AUC0-∞ (Mean)",23.5 ng·h/mL
same,Cmax,"po, 50 mg, healthy subjects, single oral dose 50 mg, day 1, read-out: Cmax (Geom. Mean)",2.29 ng/mL
same,Cmax,"po, 50 mg, healthy subjects, single oral dose 50 mg, day 1, read-out: Cmax (Mean)",2.35 ng/mL
same,Tmax,"po, 50 mg, healthy subjects, single oral dose 50 mg, day 1, read-out: Tmax (Geom. Mean)",5 h
same,Tmax,"po, 50 mg, healthy subjects, single oral dose 50 mg, day 1, read-out: Tmax (Mean)",5.3 h
same,half-life,"po, 50 mg, healthy subjects, single oral dose 50 mg, day 1, read-out: t1/2 (Geom. Mean) (converted)",9.69 h
same,half-life,"po, 50 mg, healthy subjects, single oral dose 50 mg, day 1, read-out: t1/2 (Mean) (converted)",10.7 h
same,AUC(0-t),"po, 75 mg, healthy subjects, multiple oral doses (q12 h) 75 mg, day 14, read-out: AUCss (AUC0-12) (Geom. Mean)",24.1 ng·h/mL
same,AUC(0-t),"po, 75 mg, healthy subjects, multiple oral doses (q12 h) 75 mg, day 14, read-out: AUCss (AUC0-12) (Mean)",~24.9 ng·h/mL
same,Cmax,"po, 75 mg, healthy subjects, multiple oral doses (q12 h) 75 mg, day 14, read-out: Cmax (Geom. Mean)",2.92 ng/mL
same,Cmax,"po, 75 mg, healthy subjects, multiple oral doses (q12 h) 75 mg, day 14, read-out: Cmax (Mean)",3.05 ng/mL
same,Tmax,"po, 75 mg, healthy subjects, multiple oral doses (q12 h) 75 mg, day 14, read-out: Tmax (Geom. Mean)",6.3 h
same,Tmax,"po, 75 mg, healthy subjects, multiple oral doses (q12 h) 75 mg, day 14, read-out: Tmax (Mean)",6.3 h
same,half-life,"po, 75 mg, healthy subjects, multiple oral doses (q12 h) 75 mg, day 14, read-out: t1/2 (Geom. Mean) (converted)",6.38 h
same,half-life,"po, 75 mg, healthy subjects, multiple oral doses (q12 h) 75 mg, day 14, read-out: t1/2 (Mean) (converted)",6.45 h
same,AUC(0-inf),"po, 75 mg, healthy subjects, single oral dose 75 mg, day 1, read-out: AUC0-∞ (Geom. Mean)",16.8 ng·h/mL
same,AUC(0-inf),"po, 75 mg, healthy subjects, single oral dose 75 mg, day 1, read-out: AUC0-∞ (Mean)",16.9 ng·h/mL
same,Cmax,"po, 75 mg, healthy subjects, single oral dose 75 mg, day 1, read-out: Cmax (Geom. Mean)",1.56 ng/mL
same,Cmax,"po, 75 mg, healthy subjects, single oral dose 75 mg, day 1, read-out: Cmax (Mean)",1.6 ng/mL
same,Tmax,"po, 75 mg, healthy subjects, single oral dose 75 mg, day 1, read-out: Tmax (Geom. Mean)",5.3 h
same,Tmax,"po, 75 mg, healthy subjects, single oral dose 75 mg, day 1, read-out: Tmax (Mean)",5.5 h
same,half-life,"po, 75 mg, healthy subjects, single oral dose 75 mg, day 1, read-out: t1/2 (Geom. Mean) (converted)",7.93 h
same,half-life,"po, 75 mg, healthy subjects, single oral dose 75 mg, day 1, read-out: t1/2 (Mean) (converted)",8.22 h
